US20050182025A1, “Amidinylphenyl compounds and their use as fungicides” (priority 2002, published 2005)

Key:
Assay type in all cases: in vivo
[1] = system: Erysiphe graminis f. sp. tritici; experiment: Test A: preventive spray on wheat seedlings, wheat powdery mildew, disease rating; settings: wheat seedlings sprayed to run-off, inoculated the following day with Erysiphe graminis f. sp. tritici, rated after 7 days at 20° C.; test concentration not given
Text: General protocol for preparing test suspensions: Test compounds were first dissolved in acetone in an amount equal to 3% of the final volume and then suspended at the desired concentration (in ppm) in acetone and purified water (50/50 mix) containing 250 ppm of the surfactant Trem® 014 (polyhydric alcohol esters). The resulting test suspensions were then used in the following tests. Spraying a 200 ppm test suspension to the point of run-off on the test plants was the equivalent of a rate of 500 g/ha. The test suspension was sprayed to the point of run-off on wheat seedlings. The following day the seedlings were inoculated with a spore dust of Erysiphe graminis f. sp. tritici, (the causal agent of wheat powdery mildew) and incubated in a growth chamber at 20° C. for 7 days, after which disease ratings were made. Results for Tests A-C are given in Table A. In the table, a rating of 100 indicates 100% disease control and a rating of 0 indicates no disease control (relative to the controls). A dash (-) indicates no test results.

Puccinia recondita = experiment: Test B: preventive spray on wheat seedlings, wheat leaf rust, disease rating; settings: wheat seedlings sprayed to run-off, inoculated the following day with Puccinia recondita, 24 h saturated atmosphere then 6 days at 20° C.; test concentration not given
Text: (§1) General protocol for preparing test suspensions: Test compounds were first dissolved in acetone in an amount equal to 3% of the final volume and then suspended at the desired concentration (in ppm) in acetone and purified water (50/50 mix) containing 250 ppm of the surfactant Trem® 014 (polyhydric alcohol esters). The resulting test suspensions were then used in the following tests. Spraying a 200 ppm test suspension to the point of run-off on the test plants was the equivalent of a rate of 500 g/ha. The test suspension was sprayed to the point of run-off on wheat seedlings. The following day the seedlings were inoculated with a spore suspension of Puccinia recondita (the causal agent of wheat leaf rust) and incubated in a saturated atmosphere at 20° C. for 24 h, and then moved to a growth chamber at 20° C. for 6 days, after which disease ratings were made. Results for Tests A-C are given in Table A. In the table, a rating of 100 indicates 100% disease control and a rating of 0 indicates no disease control (relative to the controls). A dash (-) indicates no test results.

Septoria nodorum = experiment: Test C: preventive spray on wheat seedlings, Septoria glume blotch, disease rating; settings: wheat seedlings sprayed to run-off, inoculated the following day with Septoria nodorum, 48 h saturated atmosphere then 9 days at 20° C.; test concentration not given
Text: as §1, with “Septoria nodorum” for “Puccinia recondita”, “Septoria glume blotch)” for “wheat leaf rust)”, “48” for “24”, “9” for “6”

SMILES | Test A disease control rating (100 = 100% disease control, 0 = no disease control relative to the controls) [1] [%] | Test B disease control rating (100 = 100% disease control, 0 = no disease control relative to the controls) (Puccinia recondita) [%] | Test C disease control rating (100 = 100% disease control, 0 = no disease control relative to the controls) (Septoria nodorum) [%]
Cc1cc(OCCC[Si](C)(C)C)c(C)cc1N=CN(C)C [Compound 26, N′-[2,5-Dimethyl-4-[3-(trimethylsilyl)propoxy]phenyl]-N,N-dimethylmethanimidamide] | 98 | 100 | 100
Cc1cc(OCCCO[Si](C)(C)C(C)(C)C)c(C)cc1N=CN(C)C [Compound 27] | 99 | 100 | 100
CCCCC(CCCC)Oc1cc(C)c(N=CN(C)C)cc1C [Compound 28, N′-[4-[(1-Butylpentyl)oxy]-2,5-dimethylphenyl]-N,N-dimethylmethanimidamide] | 0 | 97 | 0
CCCCC(CCC)Oc1cc(C)c(N=CN(C)C)cc1C (stereo not drawn) [Compound 29] | 99 | 100 | 58
CCCCCC(CCCCC)Oc1cc(C)c(N=CN(C)C)cc1C [Compound 30] | 0 | 100 | 0
CCC(CCC(C)C)Oc1cc(C)c(N=CN(C)C)cc1C (stereo not drawn) [Compound 31] | 93 | 100 | 53
Cc1cc(OC(C)CCC(C)C)c(C)cc1N=CN(C)C (stereo not drawn) [Compound 32] | 97 | 100 | 95
CCCC(CCC(C)C)Oc1cc(C)c(N=CN(C)C)cc1C (stereo not drawn) [Compound 33] | 95 | 100 | 0
CCC(CC)Oc1cc(C)c(N=CN(C)C)cc1C [Compound 34] | 96 | 100 | 0
Cc1cc(OC(CCC(C)C)CCC(C)C)c(C)cc1N=CN(C)C [Compound 35] | 95 | 100 | 100
CCCC(CCC)Oc1cc(C)c(N=CN(C)C)cc1C [Compound 36] | 88 | 100 | 0
C=C(COc1cc(C)c(N=CN(C)C)cc1C)C[Si](C)(C)C [Compound 38] | 96 | 100 | 20
CC(C)=CCCOc1cc(C)c(N=CN(C)C)cc1C [Compound 39] | 0 | 100 | 94
Cc1cc(OCC=CC(C)(C)C)c(C)cc1N=CN(C)C [Compound 40] | 97 | 100 | 100
Cc1cc(OCCOC(C)(C)C)c(C)cc1N=CN(C)C [Compound 41] | 79 | 99 | 47
COC(C)(C)CCCOc1cc(C)c(N=CN(C)C)cc1C [Compound 43] | 96 | 100 | 93
CCOC(C)(C)CCCOc1cc(C)c(N=CN(C)C)cc1C [Compound 44] | 99 | 100 | 99
Cc1cc(OCCCC(C)(C)O)c(C)cc1N=CN(C)C [Compound 45] | 0 | 80 | 0
Cc1cc(OCCCC(C)(Cl)C(C)C)c(C)cc1N=CN(C)C (stereo not drawn) [Compound 46] | 97 | 100 | 97
Cc1cc(OCCCCC(C)(C)C#N)c(C)cc1N=CN(C)C [Compound 47] | 29 | 99 | 80
Cc1cc(OCCCCC(C)C)c(C)cc1N=CN(C)C [Compound 48] | 99 | 100 | 96
Cc1cc(OCCCC(C)C(C)C)c(C)cc1N=CN(C)C (stereo not drawn) [Compound 49] | 99 | 99 | 83
Cc1cc(OCCCC(C)(C)C)c(C)cc1N=CN(C)C [Compound 50] | 99 | 67 | 100
CC[Si](C)(C)CCCOc1cc(C)c(N=CN(C)C)cc1C [Compound 51] | 96 | 100 | 100
CCC[Si](C)(C)CCCOc1cc(C)c(N=CN(C)C)cc1C [Compound 52] | 100 | 100 | 99
CC[Si](C)(CC)CCCOc1cc(C)c(N=CN(C)C)cc1C [Compound 53] | 100 | 100 | 99
Cc1cc(OCCC[Si](C)(C)C)c(Cl)cc1N=CN1CCCC1 [Compound 95] | 100 | 100 | 100
